In data set [1] the test system is Phakopsora pachyrhizi. The data set can be described thus: Phakopsora pachyrhizi/Soybean/Preventative (Soybean Rust). It counts as in vivo. To be noted: 288 h.
For data set [2], the system named is Mycosphaerella arachidis (Cercospora arachidicola). Put plainly: Mycosphaerella arachidis (Cercospora arachidicola)/Liquid Culture (Early Leaf Spot). It counts as cell-based. The conditions noted are these: liquid culture, compared to untreated control. The essentials: (§1)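 Test compound dissolved in DMSO is dispensed first; nutrient broth (potato dextrose) carrying conidia thawed from cryogenic storage follows.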

The subject of data set [3] is Phaeosphaeria nodorum (Septoria nodorum). The data set can be described thus: Phaeosphaeria nodorum (Septoria nodorum)/Wheat/Leaf Disc Preventative (Glume Blotch). It counts as in vivo. The conditions noted are these: Parastagonospora nodorum, foliar, wheat leaf disc preventative, compared to untreated control. In outline: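 Wheat cv. Kanzler leaf discs on agar were sprayed with formulated compound diluted in water and inoculated with P. nodorum spores 2 days later. Discs kept at 20 °C, 75% rh, 12 h light/dark; percent disease control versus untreated scored 5–7 days after application.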

The test system of data set [4] is Plasmopara viticola. The data set can be described thus: whole plant or invertebrate. To be noted: foliar, read-out: control of Plasmopara viticola. It counts as in vivo.
Data set [5] has as its system Phytophthora infestans. The data set can be described thus: whole plant or invertebrate. It counts as in vivo. To be noted: in Solanum lycopersicum, foliar, read-out: control of Phytophthora infestans.
For data set [6], the system named is Magnaporthe grisea (Pyricularia oryzae). The data set can be described thus: whole plant or invertebrate. The conditions noted are these: foliar, read-out: control of Magnaporthe grisea. It counts as in vivo.
For data set [7], the system named is Glomerella lagenarium (Colletotrichum lagenarium). Put plainly: Glomerella lagenarium (Colletotrichum lagenarium)/Liquid Culture (Anthracnose). It counts as cell-based. The conditions noted are these: Colletotrichum orbiculare, liquid culture, compared to untreated control.
Data set [8] is described as follows: Photostability assay (Atlas Suntest). It counts as physicochemical. To be noted: Suntest 750 W/m^2, spotted on microscope slides. In outline:
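Compound (2 μl of 1 g/L methanol stock) spotted on glass slides and irradiated at 750 W/m^2 in a Suntest. Slides were washed with H2O:MeCN:THF 50:40:10 and analysed by reverse-phase UPLC-PDA; peak area versus initial gave % parent remaining at 3 hours.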

Data set [9] concerns Blumeria graminis f. sp. tritici (Erysiphe graminis f. sp. tritici). Put plainly: Blumeria graminis f. sp. tritici/Wheat/Leaf Disc Preventative (Powdery Mildew on Wheat). It counts as in vivo. To be noted: foliar, wheat leaf disc preventative, compared to untreated control. In outline:
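Wheat cv. Kanzler leaf segments on agar sprayed with formulated compound, inoculated with powdery mildew 1 day later and held at 20° C, 60% rh (24 h dark, then 12 h light/12 h dark). Percent disease control versus untreated scored 6-8 days after application.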

Data set [10] relates to Pythium ultimum. Put plainly: Pythium ultimum/Liquid Culture (Seedling Damping Off). It counts as cell-based. The conditions noted are these: Globisporangium ultimum, liquid culture, compared to untreated control. The procedure:
Mycelia fragments and oospores of a newly grown liquid culture of the fungus are directly mixed into nutrient broth (PDB potato dextrose broth). After placing a (DMSO) solution of test compound into a microtiter plate (96-well format), the nutrient broth containing the fungal mycelia/spore mixture is added.

In data set [11] the test system is Mycosphaerella graminicola (Septoria tritici). The data set can be described thus: Mycosphaerella graminicola (Septoria tritici)/Liquid Culture (Septoria Blotch). It counts as cell-based. The conditions noted are these: Zymoseptoria tritici; 20 ppm; liquid culture; compared to untreated control. In outline: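 Conidia from cryogenic storage mixed into potato dextrose broth and added to microtiter wells already holding DMSO solutions of test compound. Activity expressed as percentage disease control.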

Data set [12] deals with Botryotinia fuckeliana (Botrytis cinerea). The data set can be described thus: Botryotinia fuckeliana (Botrytis cinerea)/Liquid Culture (Gray Mould). It counts as cell-based. To be noted: liquid culture, compared to untreated control. The procedure: Conidia of the fungus from cryogenic storage are directly mixed into nutrient broth (Vogels broth). After placing a (DMSO) solution of test compound into a microtiter plate (96-well format), the nutrient broth containing the fungal spores is added.

Data set [13] deals with Monographella nivalis (Microdochium nivale). The data set can be described thus: Monographella nivalis (Microdochium nivale)/Liquid Culture (Foot Rot Cereals). It counts as cell-based. The conditions noted are these: liquid culture, compared to untreated control. The essentials:
as §1

In data set [14] the test system is Puccinia recondita f. sp. tritici. Put plainly: Puccinia recondita f. sp. tritici/Wheat/Leaf Disc Preventative (Brown Rust). To be noted: foliar, 200 ppm, wheat leaf disc preventative, compared to untreated control, read-out: control of Puccinia recondita f. sp. tritici. It counts as in vivo.
For data set [15] the test system is unchanged. The data set can be described thus: Puccinia recondita f. sp. tritici/Wheat/Leaf Disc Curative (Brown Rust). The conditions noted are these: foliar, wheat leaf disc curative, compared to untreated control. It counts as in vivo. The essentials:
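Curative leaf-disc test on wheat cv. Kanzler segments on agar, spore-inoculated and kept dark at 19° C, 75% rh; formulated compound in water applied 1 day after inoculation. Incubated at 19° C, 75% rh, 12 h light/12 h dark; percent disease control versus untreated scored 6-8 days after application.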

Data set [16] has as its system Alternaria solani. Put plainly: Alternaria solani/Tomato/Leaf Disc (Early Blight). It counts as in vivo. The conditions noted are these: foliar, tomato leaf disc, compared to untreated control. The essentials: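 Tomato cv. Baby leaf disks on agar were sprayed with diluted formulated compound and inoculated with spores 2 days later. Incubation at 23° C./21° C. day/night, 80% rh, 12/12 h light; percent disease control versus untreated scored 5-7 days after application.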

[17] abbreviates: foliar, soybean leaf disc preventative, compared to untreated control, read-out: control of Phakopsora pachyrhizi.

A word on the inhibition of growth: it is how much of the control response was suppressed. High values mean a response far below the control, low ones a response near the control. As usually defined, the melting point is the temperature of the solid-liquid transition.

Molecules are shown by their SMILES. Like-named read-outs stand apart in the source and are kept apart here.

In the case of `CO/C=C(\Oc1cc(-n2ccc(C(C)C)n2)ccc1C)C(=O)OC` [Compound E-92, methyl (Z)-2-[5-(3-isopropylpyrazol-1-yl)-2-methyl-phenoxy]-3-methoxy-prop-2-enoate], the melting point was in the range of 88 to 91 °C. The pest or weed control at 0.6 ppm in data set [1] (Phakopsora pachyrhizi (Soybean rust), 0.6 ppm) is 0%. Besides, in [1] (Phakopsora pachyrhizi (Soybean rust), 2 ppm), the pest or weed control at 2 ppm turned out to be 0%. In data set [1] (Phakopsora pachyrhizi (Soybean rust), 6 ppm), the pest or weed control at 6 ppm came to 35%. The same compound displayed a pest or weed control at 20 ppm in data set [1] (Phakopsora pachyrhizi (Soybean rust), 20 ppm) of 90%. The pest or weed control at 60 ppm in data set [1] (Phakopsora pachyrhizi (Soybean rust), 60 ppm) was 100%. Further, the pest or weed control at 200 ppm in [1] (Phakopsora pachyrhizi (Soybean rust), read-out: control (%)) was 100%. The same compound yielded an inhibition of growth at 20 ppm in data set [2] of no less than 80%. Also, the pest or weed control at 200 ppm in [3] was no less than 80%. In addition, the pest or weed control at 200 ppm in data set [4] is no less than 80%. In data set [5], the pest or weed control at 200 ppm is no less than 80%. The pest or weed control at 200 ppm in data set [6] is no less than 80%. For the same compound, the inhibition of growth at 20 ppm in data set [7] is no less than 80%. Further, the “% Parent Remaining @ 3 hrs” value in data set [8] turned out to be 33%. The pest or weed control at 200 ppm in data set [9] was no less than 80%. The compound also yielded an inhibition of growth at 20 ppm in data set [10] of no less than 80%. In data set [11], this compound came in with an inhibition of growth at 20 ppm of no less than 80%. Moreover, the inhibition of growth at 20 ppm in data set [12] was no less than 80%. This compound came in with an inhibition of growth at 20 ppm in data set [13] of no less than 80%.

Turning to `CO/C=C(\Oc1cc(-n2ccc(C3CCCC3)n2)ccc1C)C(=O)OC` [Compound E-5, methyl (Z)-2-[5-(3-cyclopentylpyrazol-1-yl)-2-methyl-phenoxy]-3-methoxy-prop-2-enoate], the pest or weed control at 200 ppm in data set [14], in data set [4], in [5], in data set [15] and in [6] was no less than 80% throughout. Further, the inhibition of growth at 20 ppm in data set [2], in data set [7], in [10], in [11], in data set [12] and in data set [13] was no less than 80% in each case.

Take `CO/C=C(\Oc1cc(-n2ccc(C(C)C)n2)cc(OC)c1C)C(=O)OC` [Compound E-21, methyl (Z)-2-[5-(3-isopropylpyrazol-1-yl)-3-methoxy-2-methyl-phenoxy]-3-methoxy-prop-2-enoate]: the melting point lay in the range of 90 to 92 °C. Also, the pest or weed control at 200 ppm in [16] is no less than 80%. In [14], the pest or weed control at 200 ppm is no less than 80%. The inhibition of growth at 20 ppm in data set [2] was no less than 80%. Moreover, the pest or weed control at 200 ppm in [4] is no less than 80%. Further, the pest or weed control at 200 ppm in [5] was no less than 80%. In [15], this compound returned a pest or weed control at 200 ppm of no less than 80%. The compound further gave an inhibition of growth at 20 ppm in data set [7] of no less than 80%. In [10], this compound showed an inhibition of growth at 20 ppm of no less than 80%. In data set [11], this compound had an inhibition of growth at 20 ppm of no less than 80%. The inhibition of growth at 20 ppm in [13] was no less than 80%.

In the case of `CO/C=C(\Oc1cc(-n2ccc(C(C)(C)C)n2)ccc1C)C(=O)OC` [Compound E-103, methyl (Z)-2-[5-(3-tert-butylpyrazol-1-yl)-2-methyl-phenoxy]-3-methoxy-prop-2-enoate], the pest or weed control at 200 ppm in data set [1] (setting [17]) was no less than 50%; in data set [14] it was no less than 80%; in data set [3], no less than 80%; in data set [4], no less than 80%; in [5], no less than 80%; in data set [15] it was no less than 80%. In addition, the pest or weed control at 200 ppm in data set [6] and in data set [9] was no less than 80% in each case. Also, the inhibition of growth at 20 ppm in [2], in data set [7], in data set [10], in data set [11], in data set [12] and in [13] was no less than 80% in each case.

For the compound `CO/C=C(\Oc1cc(-n2cc(C3CCC3)cn2)ccc1C)C(=O)OC` [Compound E-80, methyl (Z)-2-[5-(4-cyclobutylpyrazol-1-yl)-2-methyl-phenoxy]-3-methoxy-prop-2-enoate], the pest or weed control at 200 ppm in data set [1] (setting [17]) was no less than 50%; in data set [16], no less than 80%; in data set [14] it was no less than 80%; in data set [4] it was no less than 80%; in [5] it was no less than 80%; in data set [15] it was no less than 80%. Further, the pest or weed control at 200 ppm in [6] and in data set [9] was no less than 80% in each case. The inhibition of growth at 20 ppm in data set [2], in [7], in [10], in data set [11], in data set [12] and in [13] was no less than 80% in each case.

On to `CO/C=C(\Oc1cccc(-n2ncc(C3CC3)n2)c1)C(=O)OC` [Compound F-9, methyl (Z)-2-[3-(4-cyclopropyltriazol-2-yl)phenoxy]-3-methoxy-prop-2-enoate], for which the pest or weed control at 200 ppm in [14], in data set [4], in data set [5], in data set [15] and in data set [9] was no less than 80% in each case. The inhibition of growth at 20 ppm in [2], in data set [7], in data set [10], in [11] and in data set [13] was no less than 80% throughout.

On to `CO/C=C(\Oc1cc(-n2ccc(C(C)C)n2)cc(F)c1C)C(=O)OC` [Compound E-7, methyl (Z)-2-[3-fluoro-5-(3-isopropylpyrazol-1-yl)-2-methyl-phenoxy]-3-methoxy-prop-2-enoate], for which the melting point was 114 to 116 °C. For the same compound, the pest or weed control at 200 ppm in data set [1] (setting [17]) is no less than 50%. In data set [14], the pest or weed control at 200 ppm was no less than 80%. The compound also displayed an inhibition of growth at 20 ppm in data set [2] of no less than 80%. For the same compound, the pest or weed control at 200 ppm in data set [3] was no less than 80%. Further, the pest or weed control at 200 ppm in data set [4] was no less than 80%. Moreover, the pest or weed control at 200 ppm in data set [5] was no less than 80%. The pest or weed control at 200 ppm in [15] was no less than 80%. Also, in data set [6], the pest or weed control at 200 ppm was no less than 80%. Further, the inhibition of growth at 20 ppm in data set [7] was no less than 80%. The pest or weed control at 200 ppm in data set [9] is no less than 80%. Further, the inhibition of growth at 20 ppm in data set [10] is no less than 80%. In addition, the inhibition of growth at 20 ppm in data set [11] was no less than 80%. This compound showed an inhibition of growth at 20 ppm in data set [13] of no less than 80%.
